{"source": "paper PMC5218480", "about": "(PLoS ONE, 2017)", "system": "MV-4-11 cells", "assay": "Gene expression microarray analysis (Affymetrix PrimeView) and GSEA", "format": "cell-based, human", "parameters": "RFU PODN (11730768_x_at) / Fold change /veh PODN (11730768_x_at) / RFU LINC00158 (11744669_a_at) / Fold change /veh LINC00158 (11744669_a_at) / RFU DUSP10 (11751237_a_at) / Fold change /veh DUSP10 (11751237_a_at) / RFU ID3 (11757404_x_at) / Fold change /veh ID3 (11757404_x_at) / RFU PLEKHG5 (11737974_s_at) / Fold change /veh PLEKHG5 (11737974_s_at) / RFU LRRC4B (11730491_at) / Fold change /veh LRRC4B (11730491_at) / RFU GIMAP4 (11747438_a_at) / Fold change /veh GIMAP4 (11747438_a_at) / RFU KRT8 (11758183_x_at) / Fold change /veh KRT8 (11758183_x_at) / RFU CNN1 (11734310_a_at) / Fold change /veh CNN1 (11734310_a_at) / RFU VPS37D (11726825_at) / Fold change /veh VPS37D (11726825_at) / RFU C10orf10 (11716522_x_at) / Fold change /veh C10orf10 (11716522_x_at) / RFU KIR2DL2 /// KIR2DL4 /// KIR2DL5A /// KIR2DL5B /// KIR2DS1 /// KIR2DS2 /// KIR2DS3 /// KIR2DS4 /// KIR3DL3 /// KIR3DL3 /// KIR3DS1 (11738374_at) / Fold change /veh KIR2DL2 /// KIR2DL4 /// KIR2DL5A /// KIR2DL5B /// KIR2DS1 /// KIR2DS2 /// KIR2DS3 /// KIR2DS4 /// KIR3DL3 /// KIR3DL3 /// KIR3DS1 (11738374_at) / RFU C1QL1 (11718748_at) / Fold change /veh C1QL1 (11718748_at) / RFU TMPRSS4 (11747572_a_at) / Fold change /veh TMPRSS4 (11747572_a_at) / RFU HAMP (11756126_x_at) / Fold change /veh HAMP (11756126_x_at) / RFU RNFT2 (11725882_a_at) / Fold change /veh RNFT2 (11725882_a_at) / RFU NR4A2 (11747474_a_at) / Fold change /veh NR4A2 (11747474_a_at) / RFU ABCC12 (11746883_a_at) / Fold change /veh ABCC12 (11746883_a_at) / RFU TMEM136 (11760407_x_at) / Fold change /veh TMEM136 (11760407_x_at) / RFU CLDN22 /// WWC2 (11732394_at) / Fold change /veh CLDN22 /// WWC2 (11732394_at) / RFU HLA-DPB1 (11760878_x_at) / Fold change /veh HLA-DPB1 (11760878_x_at) / RFU SPINT1 (11716480_a_at) / Fold change /veh SPINT1 (11716480_a_at) / RFU GAP43 (11754022_s_at) / Fold change /veh GAP43 (11754022_s_at) / RFU A4GNT (11735810_at) / Fold change /veh A4GNT (11735810_at) / RFU PRB3 (11715151_x_at) / Fold change /veh PRB3 (11715151_x_at) / RFU TUBB4B (11761932_at) / Fold change /veh TUBB4B (11761932_at) / RFU CAPN14 (11732068_a_at) / Fold change /veh CAPN14 (11732068_a_at) / RFU TMCC2 (11721928_a_at) / Fold change /veh TMCC2 (11721928_a_at) / RFU IRGQ (11745062_a_at) / Fold change /veh IRGQ (11745062_a_at) / RFU FAM174B (11720279_a_at) / Fold change /veh FAM174B (11720279_a_at) / RFU TMPRSS4 (11748680_a_at) / Fold change /veh TMPRSS4 (11748680_a_at) / RFU FAM212B (11763350_a_at) / Fold change /veh FAM212B (11763350_a_at) / RFU PLEKHG5 (11743358_a_at) / Fold change /veh PLEKHG5 (11743358_a_at) / RFU ZSCAN30 (11745921_a_at) / Fold change /veh ZSCAN30 (11745921_a_at) / RFU CMKLR1 (11741424_a_at) / Fold change /veh CMKLR1 (11741424_a_at) / RFU LOC101060620 /// MAPK8IP1 (11723275_at) / Fold change /veh LOC101060620 /// MAPK8IP1 (11723275_at) / RFU SPTSSB (11747773_x_at) / Fold change /veh SPTSSB (11747773_x_at) / RFU PRSS12 (11739890_at) / Fold change /veh PRSS12 (11739890_at) / RFU BIN1 (11741810_x_at) / Fold change /veh BIN1 (11741810_x_at) / RFU WNT11 (11732464_a_at) / Fold change /veh WNT11 (11732464_a_at) / RFU C10orf10 (11716521_a_at) / Fold change /veh C10orf10 (11716521_a_at) / RFU C5orf56 (11738089_at) / Fold change /veh C5orf56 (11738089_at) / RFU CYB561 (11721691_x_at) / Fold change /veh CYB561 (11721691_x_at) / RFU ANKRD19P (11752326_a_at) / Fold change /veh ANKRD19P (11752326_a_at) / RFU OR2T12 /// OR2T33 /// OR2T8 (11738714_s_at) / Fold change /veh OR2T12 /// OR2T33 /// OR2T8 (11738714_s_at) / RFU VCAN (11748164_a_at) / Fold change /veh VCAN (11748164_a_at) / RFU JSRP1 (11732532_at) / Fold change /veh JSRP1 (11732532_at) / RFU KRTAP10-11 (11738290_x_at) / Fold change /veh KRTAP10-11 (11738290_x_at) / RFU MYO3A (11730013_a_at) / Fold change /veh MYO3A (11730013_a_at) / RFU EBF3 (11725865_a_at) / Fold change /veh EBF3 (11725865_a_at) / RFU CAMK2N1 (11719241_x_at) / Fold change /veh CAMK2N1 (11719241_x_at) / RFU C5orf56 (11738088_a_at) / Fold change /veh C5orf56 (11738088_a_at) / RFU OLFML3 (11715873_a_at) / Fold change /veh OLFML3 (11715873_a_at) / RFU LOC100653217 /// NTM (11731650_a_at) / Fold change /veh LOC100653217 /// NTM (11731650_a_at) / RFU MAPK11 (11762145_a_at) / Fold change /veh MAPK11 (11762145_a_at) / RFU FIZ1 (11724087_x_at) / Fold change /veh FIZ1 (11724087_x_at) / RFU OASL (11726364_x_at) / Fold change /veh OASL (11726364_x_at) / RFU SOX15 (11748057_x_at) / Fold change /veh SOX15 (11748057_x_at) / RFU CD79A (11719716_a_at) / Fold change /veh CD79A (11719716_a_at) / RFU HIST1H1D (11736915_at) / Fold change /veh HIST1H1D (11736915_at) / RFU CASKIN2 (11723855_a_at) / Fold change /veh CASKIN2 (11723855_a_at) / RFU LOC730098 (11760151_x_at) / Fold change /veh LOC730098 (11760151_x_at) / RFU OR4N2 (11742367_at) / Fold change /veh OR4N2 (11742367_at) / RFU PRRT2 (11749266_a_at) / Fold change /veh PRRT2 (11749266_a_at) / RFU SNX32 (11753110_a_at) / Fold change /veh SNX32 (11753110_a_at) / RFU CDHR5 (11726645_a_at) / Fold change /veh CDHR5 (11726645_a_at) / RFU RCAN1 (11760418_a_at) / Fold change /veh RCAN1 (11760418_a_at) / RFU FAM167A (11723789_a_at) / Fold change /veh FAM167A (11723789_a_at) / RFU FAM26E (11764081_at) / Fold change /veh FAM26E (11764081_at) / RFU ISYNA1 (11749810_s_at) / Fold change /veh ISYNA1 (11749810_s_at) / RFU ACY1 (11761880_at) / Fold change /veh ACY1 (11761880_at) / RFU 11764098_at / Fold change /veh 11764098_at / RFU SAMD14 (11745864_x_at) / Fold change /veh SAMD14 (11745864_x_at) / RFU NPB (11741838_a_at) / Fold change /veh NPB (11741838_a_at) / RFU TMPRSS6 (11731388_a_at) / Fold change /veh TMPRSS6 (11731388_a_at) / RFU KRTAP10-2 (11738614_at) / Fold change /veh KRTAP10-2 (11738614_at) / RFU ARHGAP8 /// PRR5-ARHGAP8 (11727945_x_at) / Fold change /veh ARHGAP8 /// PRR5-ARHGAP8 (11727945_x_at) / RFU KRTAP5-7 /// NADSYN1 (11734609_at) / Fold change /veh KRTAP5-7 /// NADSYN1 (11734609_at) / RFU RASL12 (11751679_a_at) / Fold change /veh RASL12 (11751679_a_at) / RFU CDKN2B (11736163_a_at) / Fold change /veh CDKN2B (11736163_a_at) / RFU PRF1 (11729649_at) / Fold change /veh PRF1 (11729649_at) / RFU, ZNF638 /// ZNF638-IT1 / Fold change vs veh, ZNF638 /// ZNF638-IT1 / RFU, PANK3 / Fold change vs veh, PANK3 / RFU, SH3YL1 / Fold change vs veh, SH3YL1 / RFU, ZEB2 / Fold change vs veh, ZEB2 / RFU, NRIP1 / Fold change vs veh, NRIP1 / RFU, PTTG1IP / Fold change vs veh, PTTG1IP / RFU, CAPN2 / Fold change vs veh, CAPN2 / RFU, MED14 / Fold change vs veh, MED14 / RFU, SNORA58 / Fold change vs veh, SNORA58 / RFU, C1orf63 / Fold change vs veh, C1orf63 / RFU, LRRFIP1 / Fold change vs veh, LRRFIP1 / RFU, NDUFAF7 / Fold change vs veh, NDUFAF7 / RFU, SLC12A2 / Fold change vs veh, SLC12A2 / RFU, IBTK / Fold change vs veh, IBTK / RFU, ESF1 / Fold change vs veh, ESF1 / Fold change vs veh, TMEM50B / RFU, TAOK1 / Fold change vs veh, TAOK1 / RFU, ACBD3 / Fold change vs veh, ACBD3 / RFU, TMA16 / Fold change vs veh, TMA16 / RFU, RWDD3 / Fold change vs veh, RWDD3 / RFU, BCAT1 / Fold change vs veh, BCAT1 / RFU, EDEM3 / Fold change vs veh, EDEM3 / RFU, TMEM33 / Fold change vs veh, TMEM33 / RFU, WDR75 / Fold change vs veh, WDR75 / RFU, AHCTF1 / Fold change vs veh, AHCTF1 / RFU, TFRC / Fold change vs veh, TFRC / RFU, ZDHHC17 / Fold change vs veh, ZDHHC17 / RFU, NOM1 / Fold change vs veh, NOM1 / RFU, ARL8B / Fold change vs veh, ARL8B / RFU, ZBTB11 / Fold change vs veh, ZBTB11 / RFU, TAMM41 / Fold change vs veh, TAMM41 / RFU, KIAA1704 /// LOC100996395 / Fold change vs veh, KIAA1704 /// LOC100996395 / RFU, ING1 / Fold change vs veh, ING1 / RFU, TRMT61B / Fold change vs veh, TRMT61B / RFU, FUBP3 / Fold change vs veh, FUBP3 / RFU, TP53 / Fold change vs veh, TP53 / RFU, TNKS2 / Fold change vs veh, TNKS2 / RFU, ZFP14 / Fold change vs veh, ZFP14 / RFU, ACTR2 / Fold change vs veh, ACTR2 / RFU, PPP3R1 / Fold change vs veh, PPP3R1 / RFU, PIK3R1 / Fold change vs veh, PIK3R1 / RFU, HNRNPA1 / Fold change vs veh, HNRNPA1 / RFU, RNF170 / Fold change vs veh, RNF170 / RFU, ZNF28 / Fold change vs veh, ZNF28 / RFU, RNGTT / Fold change vs veh, RNGTT / RFU, OGT / Fold change vs veh, OGT / RFU, BRD1 / Fold change vs veh, BRD1 / RFU, MARS / Fold change vs veh, MARS / RFU, ZNF655 / Fold change vs veh, ZNF655 / RFU, FAHD1 / Fold change vs veh, FAHD1 / RFU, BDP1 / Fold change vs veh, BDP1 / RFU, LRRCC1 / Fold change vs veh, LRRCC1 / RFU, ARID1A / Fold change vs veh, ARID1A / RFU, ZNF146 / Fold change vs veh, ZNF146 / RFU, ZNF330 / Fold change vs veh, ZNF330 / RFU, GPN3 / Fold change vs veh, GPN3 / RFU, C9orf123 / Fold change vs veh, C9orf123 / RFU, N4BP2L2 / Fold change vs veh, N4BP2L2 / RFU, ARFIP1 / Fold change vs veh, ARFIP1 / RFU, FAM179B / Fold change vs veh, FAM179B / RFU, BCL10 / Fold change vs veh, BCL10 / RFU, UHRF1BP1L / Fold change vs veh, UHRF1BP1L / RFU, BET1 / Fold change vs veh, BET1 / RFU, CNOT2 / Fold change vs veh, CNOT2 / RFU, ZNF268 / Fold change vs veh, ZNF268 / Fold change vs veh, ZNF507 / RFU, DGCR2 / Fold change vs veh, DGCR2 / RFU, WDSUB1 / Fold change vs veh, WDSUB1 / Fold change vs veh, HSP90B1 /// MIR3652 / RFU, ADSS / Fold change vs veh, ADSS / RFU, GK / Fold change vs veh, GK / RFU, ZNF148 / Fold change vs veh, ZNF148 / RFU, TAF9 / Fold change vs veh, TAF9 / RFU, SLC1A5 / Fold change vs veh, SLC1A5 / RFU, SLMO2 / Fold change vs veh, SLMO2 / RFU, ABCC4 / Fold change vs veh, ABCC4 / RFU, LOC101060439 /// RAP1B / Fold change vs veh, LOC101060439 /// RAP1B / RFU, RFX7 / Fold change vs veh, RFX7 / RFU, GTPBP10 / Fold change vs veh, GTPBP10 / RFU, CNEP1R1 / Fold change vs veh, CNEP1R1 / RFU, BIVM-ERCC5 /// ERCC5 / Fold change vs veh, BIVM-ERCC5 /// ERCC5 / RFU, ILF3 / Fold change vs veh, ILF3 / RFU 11762660_at / Fold change /veh 11762660_at / RFU VCAN (11757783_s_at) / Fold change /veh VCAN (11757783_s_at) / RFU DDX43 (11728927_at) / Fold change /veh DDX43 (11728927_at) / RFU KRT8 (11758188_x_at) / Fold change /veh KRT8 (11758188_x_at) / RFU NKD1 (11759106_at) / Fold change /veh NKD1 (11759106_at) / RFU SRD5A1 (11742802_a_at) / Fold change /veh SRD5A1 (11742802_a_at) / RFU TPSAB1 /// TPSB2 (11721975_s_at) / Fold change /veh TPSAB1 /// TPSB2 (11721975_s_at) / RFU GSTM3 (11746129_a_at) / Fold change /veh GSTM3 (11746129_a_at) / RFU IL23R (11737362_x_at) / Fold change /veh IL23R (11737362_x_at) / RFU TMEM51 (11727254_a_at) / Fold change /veh TMEM51 (11727254_a_at) / RFU PIWIL2 (11732686_x_at) / Fold change /veh PIWIL2 (11732686_x_at) / RFU ORM1 (11744905_x_at) / Fold change /veh ORM1 (11744905_x_at) / RFU CCDC152 (11743942_at) / Fold change /veh CCDC152 (11743942_at) / RFU ECM1 (11717891_a_at) / Fold change /veh ECM1 (11717891_a_at) / RFU IL23R (11748794_a_at) / Fold change /veh IL23R (11748794_a_at) / RFU TNFAIP8L3 (11732012_x_at) / Fold change /veh TNFAIP8L3 (11732012_x_at) / RFU MBOAT4 (11741988_at) / Fold change /veh MBOAT4 (11741988_at) / RFU 11764193_at / Fold change /veh 11764193_at / RFU TMEM53 (11763286_at) / Fold change /veh TMEM53 (11763286_at) / RFU MAGEB2 (11727129_at) / Fold change /veh MAGEB2 (11727129_at) / RFU TMEM200A (11744735_a_at) / Fold change /veh TMEM200A (11744735_a_at) / RFU CCDC152 (11751479_a_at) / Fold change /veh CCDC152 (11751479_a_at) / RFU FAM211A (11726209_a_at) / Fold change /veh FAM211A (11726209_a_at) / RFU RGS16 (11746705_a_at) / Fold change /veh RGS16 (11746705_a_at) / RFU VCAN (11755009_s_at) / Fold change /veh VCAN (11755009_s_at) / RFU RHOB (11743442_s_at) / Fold change /veh RHOB (11743442_s_at) / RFU RGS16 (11720943_a_at) / Fold change /veh RGS16 (11720943_a_at) / RFU RGS16 (11720944_at) / Fold change /veh RGS16 (11720944_at) / RFU, VPS4B / Fold change vs veh, VPS4B / RFU, CREB1 / Fold change vs veh, CREB1 / RFU, DNAJC13 / Fold change vs veh, DNAJC13 / RFU, GNAQ / Fold change vs veh, GNAQ / RFU, CDK5R1 / Fold change vs veh, CDK5R1 / RFU, ZRANB3 / Fold change vs veh, ZRANB3 / RFU, CUL4A / Fold change vs veh, CUL4A / RFU, CCNY / Fold change vs veh, CCNY / RFU, UFL1 / Fold change vs veh, UFL1 / RFU, COG3 / Fold change vs veh, COG3 / RFU, DIAPH2 / Fold change vs veh, DIAPH2 / RFU, SKA2 / Fold change vs veh, SKA2 / RFU, AFF3 / Fold change vs veh, AFF3 / RFU, LMF1 / Fold change vs veh, LMF1 / RFU, IPO11 / Fold change vs veh, IPO11 / RFU, DFFB / Fold change vs veh, DFFB / RFU, FOXP1 / Fold change vs veh, FOXP1 / RFU, CARD8 / Fold change vs veh, CARD8 / RFU, STRN3 / Fold change vs veh, STRN3 / RFU, ADK / Fold change vs veh, ADK / RFU, RASSF2 / Fold change vs veh, RASSF2 / RFU, WIPF1 / Fold change vs veh, WIPF1 / RFU, LARP1B / Fold change vs veh, LARP1B / RFU, RASA1 / Fold change vs veh, RASA1 / RFU, RB1 / Fold change vs veh, RB1 / RFU, PPFIA1 / Fold change vs veh, PPFIA1 / RFU, MAT2A / Fold change vs veh, MAT2A / RFU, CCT5 / Fold change vs veh, CCT5 / RFU, WDR92 / Fold change vs veh, WDR92 / RFU, CUX1 / Fold change vs veh, CUX1 / RFU, TTC7A / Fold change vs veh, TTC7A / RFU, TMEM135 / Fold change vs veh, TMEM135 / RFU, DEPTOR / Fold change vs veh, DEPTOR / RFU, CPM / Fold change vs veh, CPM / RFU, DNAJB6 / Fold change vs veh, DNAJB6 / RFU, CACNA2D3 / Fold change vs veh, CACNA2D3 / RFU, DTX4 / Fold change vs veh, DTX4 / RFU, TFCP2 / Fold change vs veh, TFCP2 / RFU, GMCL1 /// GMCL1P1 / Fold change vs veh, GMCL1 /// GMCL1P1 / RFU, AEBP2 / Fold change vs veh, AEBP2 / RFU, SNHG1 /// SNORD22 /// SNORD25 /// SNORD26 /// SNORD27 /// SNORD28 /// SNORD29 /// SNORD31 / Fold change vs veh, SNHG1 /// SNORD22 /// SNORD25 /// SNORD26 /// SNORD27 /// SNORD28 /// SNORD29 /// SNORD31 / Fold change (Aza/veh), C12orf56 (ProbeSet 11735607_a_at) / Fold change (ACY-1035/veh), C12orf56 (ProbeSet 11735607_a_at) / Fold change (Aza/veh), FGFR1OP (ProbeSet 11751329_s_at) / Fold change (ACY-1035/veh), FGFR1OP (ProbeSet 11751329_s_at) / Fold change (Aza/veh), VPS36 (ProbeSet 11739960_a_at) / Fold change (ACY-1035/veh), VPS36 (ProbeSet 11739960_a_at) / RFU SYPL1 (11715823_x_at) / Fold change /veh SYPL1 (11715823_x_at) / RFU IGFBP7 (11715501_s_at) / Fold change /veh IGFBP7 (11715501_s_at) / RFU REEP3 (11722064_at) / Fold change /veh REEP3 (11722064_at) / RFU IGLL1 (11728026_x_at) / Fold change /veh IGLL1 (11728026_x_at): dose or concentration left out as unconfirmed", "conditions": "ProbeSet 11743510_at; LIST D", "data": [{"compound": "Nc1ncn([C@@H]2O[C@H](CO)[C@@H](O)[C@H]2O)c(=O)n1", "note": "[azacitidine]", "values": [{"measurement": "RFU, UFL1", "value": 314.03, "unit": "RFU"}]}]}
